These results are taken from PMC3842960, “Natural Stilbenoids Isolated from Grapevine Exhibiting Inhibitory Effects against HIV-1 Integrase and Eukaryote MOS1 Transposase In Vitro Activities” (PLoS ONE, 2013).

One series deals with T1, MOS1 (Drosophila mauritiana, UniProt Q7JQ07).
T1 construct: involving the full-length Mos1 transposase (MOS1) was recently solved; made in house
As to the kind of experiment: MOS1 in vitro activities, overall statements of the discussion. To be noted: in vitro assays of MOS1 activities; discussion. Type of series: biochemical, D. mauritiana. Here is the method:
(§1) In vitro transposition reactions were performed using pBC-3T3 as both the donor DNA and the target, as previously described. Briefly, the basic transposition reaction mixtures contained 10 mM Tris-HCl (pH 9), 50 mM NaCl, 20 mM MgCl2, 0.5 mM EDTA, 5% glycerol, 5 ng/ml BSA, 600 ng pBC-3T3, and 80 nM purified MBP-MOS1 (added last) in a volume of 20 µl. Inhibitors (25 or 10 µM, as specified) or DMSO (2%) were added to the reaction mixtures before the transposase. The reactions were allowed to proceed for 30 min at 30°C. After phenol-chloroform extraction and ethanol precipitation, 10% of the reaction mixture was transformed in electro-competent JM109 E. coli (2 mm cuvette, 1.5 kV in a MicroPulser™BioRad). Appropriate dilutions of each reaction mixture were plated on LB-tetracycline (12.5 µg/ml) agar and LB-chloramphenicol (80 µg/ml) agar to score the transposition rate. The transposition rate was the number of Tet^R colonies divided by the number of Chloram^R plus Tet^R colonies. Each condition was done at least three times in independent experiments.
(§2) Basic excision reaction mixtures contained 10 mM Tris-HCl (pH 9), 50 mM NaCl, 20 mM MgCl2, 0.5 mM EDTA, 0.5 mM DTT, 100 ng BSA, 600 ng of super-coiled pBC-3T3, and 80 nM MBP-MOS1 (added last) in a volume of 20 µl. Molecules (25 or 10 µM, as specified) or DMSO (2%) were added to the reaction mixtures before the transposase. The reactions were allowed to proceed at 30°C for 30 min before 2 µl of stop solution (loading buffer) were added. The reaction mixtures were then incubated at 65°C for 10 min. Each reaction was analysed by overnight electrophoresis at 2.7 V/cm on a TAE-buffered 1% agarose gel with ethidium bromide (0.3 mg/ml). After electrophoresis, the gel was photographed on a transilluminator. ImageGauge 4.22 software (Fujifilm) was used to quantify the bands. Each condition was tested at least twice.
These assays were performed using pre-cleaved 3′ITRs (PC-ITR), i.e. ITRs in the configuration expected after excision. Double-strand ITRs were obtained by annealing equimolar amounts of 70-NTS-PN (5′[…]3′) and 70-TS-PC (5′[…]3′) single-strand oligonucleotides. Prior to annealing, the transferred strand (70-TS-PC) was 5′-end labelled using T4 polynucleotide kinase (Promega) and γ-^32P-ATP following the manufacturer's instructions. Oligonucleotides were provided by Eurofins MWG Biotech (Germany) or Eurogentec (Belgium). Reaction mixtures containing 10 mM Tris-HCl (pH 9), 50 mM NaCl, 1 mM DTT, 5% glycerol, 100 ng BSA, 100 nM of labelled PC-ITR and 100 nM MBP-MOS1 in a final volume of 20 µl were incubated at 30°C for 30 min. The pBC plasmid (which contained the cat gene, a hot-spot for Mos1 insertion) was then added to 30 ng/µL along with 5 mM MgCl2. Molecules (25 or 10 µM, as specified) or DMSO (2%) were added to the reaction mixtures along with the target DNA to estimate their effect on integration. Reactions were carried out for 3 hours at 30°C. 0.1 mg/ml proteinase K and 0.1% SDS were added to stop the reaction. DNA products were purified by phenol-chloroform extraction and ethanol precipitated using standard techniques. DNA products were resuspended in DNA loading buffer, then separated onto a 1% agarose gel in 1X TAE (Tris Acetate EDTA) buffer. The gel was dried onto a nitrocellulose membrane (Hybond N+, GE Healthcare), scanned using a Storm, and analysed with ImageQuant software. Signals were quantified using ImageQuant software. Efficiency of integration was calculated as the intensity of the integration signal divided by the intensity of free target signal plus integration signal. Each condition was tested at least twice.
All molecules were also tested in in vitro assays reproducing integration and excision reactions catalysed by MOS1. […] In contrast, E-resveratrol and E-ε-viniferin glucoside, which act more specifically on HIV-1 3′processing reaction, and E-piceid and E-pterostilbene, which is more efficient on the integration reaction, were not active on MOS1.

For series [1], the target named is T2, HIV-1 IN (Human immunodeficiency virus type 1 group M subtype B, UniProt P04585). Briefly: HIV-1 IN in vitro concerted integration assay (processed or unprocessed donor DNA). To be noted: for differential effect between reactions: strand transfer / processed donor versus 3′processing / unprocessed donor: comparison of concerted integration and 3′processing results; for inhibitory efficiency compared with raltegravir: concerted integration; for inhibitory efficiency compared with raltegravir / inhibition of concerted integration from processed and unprocessed donor / effect on integration from the processed DNA / inhibition of integration from the unprocessed substrate: increasing concentrations; for effect on integration from the processed DNA: processed donor DNA (strand transfer); for inhibition of integration from the unprocessed substrate: unprocessed donor DNA.

Series [2] relates to VSV-G pseudotyped lentiviruses. The series is classed as cell-based.
The test system of series [3] is VSV-G pseudotyped lentiviruses. Type of series: cell-based. Particulars: 10 µM.
Series [4] deals with T2, HIV-1 IN. As to the kind of experiment: HIV-1 IN 3′processing assay. The series is classed as biochemical. Particulars: 600 nM IN; increasing concentrations.
The subject of another series is 293T cells. Particulars: 72 hours treatment, 1–50 µM, MTS.
The target of series [5] is T3, Mos1 transposase (MOS1) (Drosophila mauritiana, UniProt Q7JQ07).
T3 construct: involving the full-length Mos1 transposase (MOS1) was recently solved; made in house
Briefly: MOS1 in vitro transposition assay (genetic hop experiment). To be noted: for activity against MOS1 in transposition assay: 10 µM. Type of series: biochemical, D. mauritiana. Here is the method: The wild type Mos1 transposase (MOS1: 345 amino acids) was produced and purified as a fusion protein linked to the maltose-binding protein by using the pMal-c2 system (New England Biolabs) and following the manufacturer's instructions.
as §1
To identify the natural stilbenes active on MOS1, the 17 molecules were tested using an in vitro genetic “hop” experiment, which is the most sensitive test available as yet. Purified MOS1 was incubated with the pBC-3T3 plasmid, which was used both as the transposon donor and the target plasmid. This plasmid contains the pBR322 tetracycline resistance gene (without promoter) framed by two Mos1 ITRs. This reconstitutes a pseudo-Mos1 element named 3T3. We took advantage of the fact that the cat gene (present in the pBC backbone) is a hotspot for Mos1 integration. […] Transposition events were recovered by bacterial transformation with selection for tetracycline resistance, as a gain-of-function landmark for transposition. […] Controls correspond to assays performed without molecule but with DMSO, which is routinely used as the solvent. […] To confirm the efficiency of the six molecules, they were similarly assayed at 10 µM ( figure 6B ). Since they appeared to be still active at 10 µM, they were further characterized in order to identify the targeted step of the transposition cycle.

The test system of a further series is topoisomerase II. Also on record: method as in PMID 16508191. Particulars: cited from earlier work.
Series [6] addresses T3, Mos1 transposase (MOS1). Briefly: MOS1 in vitro excision assay. Type of series: biochemical, D. mauritiana. Here is the method: as §2
The ability of the selected molecules to inhibit excision was tested in vitro using the pBC-3T3 plasmid as the transposon donor. MOS1 triggers the excision of the pseudo-Mos1 from the plasmid producing two linear DNA fragments, the transposon and the plasmid backbone, together with intermediate products (open circle plasmids which contained single strand nicks and linear plasmids which contained a double strand nick at one ITR). After excision, the transposon could be reintegrated, making it difficult to detect in electrophoresis. The activity of the molecules was measured by quantifying the plasmid backbone, the end product of the reaction. The assays were performed with final concentrations of 25 and 10 µM molecules. Controls correspond to assays performed without molecule but with DMSO. […] Reactions were performed at least twice for each selected molecules (leachianol G, leachianol F, quadrangularin A, hopeaphenol, vitisin B and pallidol) and the excision activity is reported in figure 7B . […] The six selected molecules were then tested for the integration step of Mos1 transposition.

A value given as a limit tells only on which side of the number the result lay.

T3 sequence (Q7JQ07 whole entry): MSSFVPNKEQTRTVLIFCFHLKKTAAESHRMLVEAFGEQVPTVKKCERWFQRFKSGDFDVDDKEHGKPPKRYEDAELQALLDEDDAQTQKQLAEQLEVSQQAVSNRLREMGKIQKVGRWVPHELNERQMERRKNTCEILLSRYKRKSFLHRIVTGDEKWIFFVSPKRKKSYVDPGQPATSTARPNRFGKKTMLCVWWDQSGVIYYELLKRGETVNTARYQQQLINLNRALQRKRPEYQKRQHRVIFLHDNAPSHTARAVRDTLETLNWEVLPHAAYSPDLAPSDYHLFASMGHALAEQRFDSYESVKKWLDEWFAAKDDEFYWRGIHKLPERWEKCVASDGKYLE
T1 sequence (Q7JQ07 whole entry): as above

For `COc1cc(/C=C/c2ccc(O)cc2)cc(OC)c1` [E-pterostilbene], the “activity on MOS1” value on MOS1 is listed as “not active”. In addition, on HIV-1 IN [1], the “differential effect between reactions: strand transfer / processed donor versus 3′processing / unprocessed donor” value is “more active on strand transfer reaction than”; the “inhibitory efficiency compared with raltegravir” value is reported as “inhibitory efficiencies close to raltegravir”; the “inhibition of concerted integration from processed and unprocessed donor” value was “inhibited both activities”. Besides, the “integration inhibition evaluated by GFP fluorescence” value in series [2] is on record as “found to induce an integration inhibition”. Also, in series [3], the “1LTR circles amount” value is reported as “no decrease”, the “2LTR circles DNA” value is “non significant increase”, the “integrated DNA amount” value is given as “slight but reproducible decrease” and the “total viral DNA amount” value is listed as “No significant change”.
Regarding `Oc1cc(O)cc(/C=C/c2ccc(O)c(O)c2)c1` [E-piceatannol], the “inhibitory effect on 3′processing” value at HIV-1 IN [4] is “showed an inhibitory effect”. On HIV-1 IN [1], the “effect on integration from the processed DNA” value is “without having any detectable effect” and the “inhibition of integration from the unprocessed substrate” value was “inhibit integration from the unprocessed substrate”. In addition, the “cytotoxicity, cell survival” value in the series on 293T cells is recorded as “showed some toxicity”.
Take `OCC1OC(Oc2cc(C=Cc3ccc(O)cc3)c3c(c2)OC(c2ccc(O)cc2)C3c2cc(O)cc(O)c2)C(O)C(O)C1O` (stereo not drawn) [E-ε-viniferin glucoside]: the “inhibitory effect on 3′processing” value on HIV-1 IN [4] is “showed an inhibitory effect”. In addition, on MOS1, the “activity on MOS1” value is “not active”. In addition, at HIV-1 IN [1], the “differential effect between reactions: strand transfer / processed donor versus 3′processing / unprocessed donor” value is given as “reaction than on integration”, the “effect on integration from the processed DNA” value is recorded as “without having any detectable effect” and the “inhibition of integration from the unprocessed substrate” value was “inhibit integration from the unprocessed substrate”. Besides, in the series with 293T cells, the “cytotoxicity, cell survival” value is listed as “showed some toxicity”.
For orientation: inhibition means the change of the read-out against control, counted positive when it falls. Take `Oc1ccc(/C=C2/c3cc(O)cc(O)c3[C@H](c3ccc(O)cc3)[C@H]2c2cc(O)cc(O)c2)cc1` [quadrangularin A]: the “activity against MOS1 in transposition assay” value on Mos1 transposase (MOS1) [5] is “still active”. Further, the inhibition at 25 µM at Mos1 transposase (MOS1) [5] (25 µM, DMSO control as reference, read-out: inhibition of the whole MOS1 transposition activity) was over 50%. The “inhibitory effect on 3′processing” value on HIV-1 IN [4] is recorded as “showed an inhibitory effect”. Also, the “activity on MOS1” value on MOS1 is given as “also active against MOS1 activities”. In addition, on HIV-1 IN [1], the “differential effect between reactions: strand transfer / processed donor versus 3′processing / unprocessed donor” value is “better inhibitor of integration from unprocessed than from processed DNA”; the “inhibition of concerted integration from processed and unprocessed donor” value is “inhibited both activities”.
One may read the IC50 as the concentration at which inhibition is half-maximal. Lower therefore signals inhibition by little substance. In the case of `Oc1ccc(C(O)C2c3cc(O)cc(O)c3[C@H](c3ccc(O)cc3)[C@H]2c2cc(O)cc(O)c2)cc1` (stereo partly drawn) [leachianol F], the “activity against MOS1 in transposition assay” value on Mos1 transposase (MOS1) [5] is listed as “still active”. In addition, on Mos1 transposase (MOS1) [5] (25 µM, DMSO control as reference), the “inhibition of the whole MOS1 transposition activity” value is recorded as “over 50%”. Further, the “inhibitory effect on 3′processing” value against HIV-1 IN [4] is “showed an inhibitory effect”. Also, the “topoisomerase II inhibition” value in the series on topoisomerase II is listed as “potent topoisomerase II inhibitors”. In addition, on Mos1 transposase (MOS1) [6] (25 µM, DMSO control as reference, read-out: inhibition of in vitro excision reaction), the inhibition at 25 µM is over 50%. On Mos1 transposase (MOS1) [6] (concentration range, sigmoid dose-response fit), inhibition was half-maximal at 30 µM (IC50). Moreover, the “activity on MOS1” value on MOS1 is reported as “also active against MOS1 activities”. Moreover, at HIV-1 IN [1] (50 µM, both activities (processed and unprocessed donor)), the “inhibition of concerted integration” value is 30–60%. On HIV-1 IN [1], the “differential effect between reactions: strand transfer / processed donor versus 3′processing / unprocessed donor” value was “active on both reactions”; the “inhibitory efficiency compared with raltegravir” value is listed as “inhibitory efficiencies close to raltegravir”; the “inhibition of concerted integration from processed and unprocessed donor” value was “inhibited both activities”.
